Assay results taken from patent US20250134909A1, “GEL COMPOSITION FOR PREVENTION OR TREATMENT OF ATOPIC DERMATITIS” (SHAPERON INC., priority 2021, published 2025).

Test system: atopic dermatitis-induced animal model by DNCB
Assay: Thickness of the epidermis and dermis (H&E), DNCB-induced atopic dermatitis model
Type: in vivo, mice
Conditions: 15th day, FIGS. 5 to 7; for dermal thickness: compared to the DNCB group and the normal Sham group; for skin epithelium thickness: compared to the DNCB group
Description: […] of a solution of 2,4-Dinitrochlorobenzene (DNCB) dissolved in acetone at a concentration of 1% or 2% was applied to the backs of mice with hair removed twice a day for 2 days, then on the 3rd day, a solution of […] containing 1% concentration of DNCB dissolved in acetone was applied twice daily, and additional applications of a solution of […] containing 1% concentration of DNCB dissolved in acetone or a solution diluted 10 times were applied twice daily on the shaved backs of mice until the 10th to 11th day starting from the day of the initial application of DNCB solution, to induce atopic dermatitis (FIG. 1).
To compare and confirm the therapeutic effects of 0.5% HY209_HA gel and 5% HY209_PEG gel on atopic dermatitis through measurement of the thickness of the epidermis and dermis in the atopic dermatitis-induced animal model of <Example 2>, each individual in the groups treated with 0.5% HY209_HA Gel, 5% HY209_PEG gel, Maxidex ointment, Eucrisa ointment, and Protopic ointment in <Experimental Example 1> had their atopic dermatitis-induced areas scarified on the 15th day from the induction of atopic dermatitis, and the Sham (untreated) group, where atopic dermatitis was not induced, and the DNCB group, which was not treated after the induction of atopic dermatitis, were also scarified on the 15th day.
After collecting skin tissues from each group of mice, the tissue samples were sliced and then fixed in 10% formalin solution for 24 hours, then rinsed with distilled water, processed into paraffin blocks, and sectioned into […] thickness slices, these slices were stained with Hematoxylin and Eosin (H&E), and observed under an optical microscope, and then the thickness of the epithelium and dermis were measured using image analysis software and analyzed using analysis software.

Row | Compound | dermal thickness | skin epithelium thickness
1 | N#Cc1ccc(Oc2ccc3c(c2)COB3O)cc1 [Crisaborole] | recovered close to that of the normal Sham group | significantly reduced
2 | C=CC[C@@H]1/C=C(\C)C[C@H](C)C[C@H](OC)[C@H]2O[C@@](O)(C(=O)C(=O)N3CCCC[C@H]3C(=O)O[C@H](/C(C)=C/[C@@H]3CC[C@@H](O)[C@H](OC)C3)[C@H](C)[C@@H](O)CC1=O)[C@H](C)C[C@@H]2OC [FK506, Tacrolimus] | recovered close to that of the normal Sham group | significantly reduced
